According to PMC12408707, “Daunorubicin and its hydroxy metabolite in cardiomyocytes: insights into cellular kinetics, toxicity, DNA damage, and dexrazoxane-induced cardioprotection” (Archives of Toxicology, 2025):

Target: T1, topoisomerase IIβ (TOP2B) (Homo sapiens, UniProt Q02880)
T1 construct: recombinant human TOP2B enzyme (Inspiralis)
Experiment: kDNA decatenation assay with recombinant human TOP2B, agarose gel
Assay type: biochemical

T1 sequence (Q02880 2-1626): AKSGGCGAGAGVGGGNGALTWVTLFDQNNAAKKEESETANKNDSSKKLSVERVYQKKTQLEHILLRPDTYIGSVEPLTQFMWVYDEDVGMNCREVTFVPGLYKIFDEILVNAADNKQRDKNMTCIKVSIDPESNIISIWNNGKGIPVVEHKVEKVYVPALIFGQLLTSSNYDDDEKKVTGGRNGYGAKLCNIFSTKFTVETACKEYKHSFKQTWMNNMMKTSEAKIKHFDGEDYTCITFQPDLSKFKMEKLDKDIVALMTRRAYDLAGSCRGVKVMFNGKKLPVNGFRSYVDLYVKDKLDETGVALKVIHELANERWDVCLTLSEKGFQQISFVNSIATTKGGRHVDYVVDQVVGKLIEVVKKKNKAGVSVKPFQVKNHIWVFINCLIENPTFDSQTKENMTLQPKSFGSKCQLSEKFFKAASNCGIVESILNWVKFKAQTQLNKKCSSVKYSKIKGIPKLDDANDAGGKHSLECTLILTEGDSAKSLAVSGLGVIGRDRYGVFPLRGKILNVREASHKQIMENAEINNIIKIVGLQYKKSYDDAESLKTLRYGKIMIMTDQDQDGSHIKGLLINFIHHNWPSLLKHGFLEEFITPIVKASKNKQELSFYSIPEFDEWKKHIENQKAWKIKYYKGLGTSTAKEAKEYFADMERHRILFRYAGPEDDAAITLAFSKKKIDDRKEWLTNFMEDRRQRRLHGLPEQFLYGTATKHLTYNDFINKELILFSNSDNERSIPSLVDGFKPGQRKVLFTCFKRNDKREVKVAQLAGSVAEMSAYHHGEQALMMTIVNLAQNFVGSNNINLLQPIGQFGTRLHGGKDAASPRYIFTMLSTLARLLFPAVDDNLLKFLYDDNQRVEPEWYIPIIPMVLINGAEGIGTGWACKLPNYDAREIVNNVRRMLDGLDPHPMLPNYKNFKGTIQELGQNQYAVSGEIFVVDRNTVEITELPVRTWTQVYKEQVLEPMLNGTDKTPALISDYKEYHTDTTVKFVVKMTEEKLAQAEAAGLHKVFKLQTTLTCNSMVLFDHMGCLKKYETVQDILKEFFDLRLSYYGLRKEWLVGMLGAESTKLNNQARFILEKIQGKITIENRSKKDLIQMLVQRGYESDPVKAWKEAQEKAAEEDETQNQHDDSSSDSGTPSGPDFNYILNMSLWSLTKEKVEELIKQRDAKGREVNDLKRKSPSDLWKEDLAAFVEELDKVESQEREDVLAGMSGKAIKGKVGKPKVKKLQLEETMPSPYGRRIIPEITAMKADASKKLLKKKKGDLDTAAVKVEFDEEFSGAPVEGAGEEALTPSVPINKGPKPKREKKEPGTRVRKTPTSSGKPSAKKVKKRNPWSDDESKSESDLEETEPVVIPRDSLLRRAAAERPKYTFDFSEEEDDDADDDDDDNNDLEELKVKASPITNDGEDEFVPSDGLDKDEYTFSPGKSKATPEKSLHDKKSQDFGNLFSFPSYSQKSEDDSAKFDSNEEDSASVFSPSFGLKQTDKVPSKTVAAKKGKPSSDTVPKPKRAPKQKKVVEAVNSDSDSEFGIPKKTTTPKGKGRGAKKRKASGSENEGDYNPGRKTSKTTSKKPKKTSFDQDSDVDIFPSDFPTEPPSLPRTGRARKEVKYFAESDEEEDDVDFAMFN

| Compound | IC50 |
| --- | --- |
| COc1cccc2c1C(=O)c1c(O)c3c(c(O)c1C2=O)C[C@@](O)(C(C)=O)C[C@@H]3O[C@H]1C[C@H](N)[C@H](O)[C@H](C)O1 [DAU, daunorubicin] | 4 ± 1 µM |
| COc1cccc2c1C(=O)c1c(O)c3c(c(O)c1C2=O)C[C@@](O)(C(C)O)C[C@@H]3O[C@H]1C[C@H](N)[C@H](O)[C@H](C)O1 (some centres unmarked) [DAU-ol, daunorubicinol] | 17 ± 4 µM |
